From the supplement of paper PMC11962398 come the findings set out here.

Compound in assay [1]: T1, C[C@H]1CNCCN1c1nccc(-c2noc3c2CCC[C@@]32CCCc3sc(N)c(C#N)c32)n1 [BI-2493]
The experiment in a line: 1 - AUC of viability dose-response curve (sensitivity) (fraction); higher = more sensitive. Particulars: 5 days. The method, then: (§1)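 PRISM pooled barcoded cancer cell line viability screen (Broad Institute) with BI-2493 at 8 doses in threefold dilutions from 0.00457 to 10 µmol/L, 5-day treatment; curves fitted per cell line. IC50 is undefined (placeholder) for resistant lines. AUC is capped at 1, and sensitivity is reported as 1 − AUC.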

Compound in assay [2]: T1, BI-2493
Particulars: 5 days. On the procedure: as §1

Turning to 1777NRPMET_TESTIS, in the assay with BI-2493 [1], the “1 - AUC of viability dose-response curve” value came out at 0.0116. For the same test system, the “IC50 of cell viability” value in the assay with BI-2493 [2] came out at 9.43 µM.

Take “DND41_HAEMATOPOIETIC_AND_LYMPHOID_TISSUE”: the “1 - AUC of viability dose-response curve” value with BI-2493 [1] was found to be 0.156. The “IC50 of cell viability” value with BI-2493 [2] was 4.59 µM.

As for CCLP1_BILIARY_TRACT, the “1 - AUC of viability dose-response curve” value in the assay with BI-2493 [1] stood at 0.0617. The “IC50 of cell viability” value in the assay with BI-2493 [2] was 7.32 µM.

Take HCC1428_BREAST: the “1 - AUC of viability dose-response curve” value with BI-2493 [1] turned out to be 0.106. The “IC50 of cell viability” value in the assay with BI-2493 [2] stood at 5.47 µM.

In the case of CAL78_BONE, the “1 - AUC of viability dose-response curve” value with BI-2493 [1] was 0.0497. The “IC50 of cell viability” value in the assay with BI-2493 [2] came to 7.37 µM.

As for DL_SOFT_TISSUE, the “1 - AUC of viability dose-response curve” value with BI-2493 [1] was determined as 0.192. The “IC50 of cell viability” value with BI-2493 [2] came to 4.57 µM.

On to DU4475_BREAST, for which, in the assay with BI-2493 [1], the “1 - AUC of viability dose-response curve” value stood at 0.151. Also, the “IC50 of cell viability” value with BI-2493 [2] is 2.96 µM.

Take HLF_LIVER: the “1 - AUC of viability dose-response curve” value with BI-2493 [1] turned out to be 0.0644. The “IC50 of cell viability” value with BI-2493 [2] came to 7.5 µM.

Turning to NCIH2171_LUNG, the “1 - AUC of viability dose-response curve” value with BI-2493 [1] is 0.0377. In addition, in the assay with BI-2493 [2], the “IC50 of cell viability” value was found to be 9.88 µM.

For the test system NCIH727_LUNG, the “1 - AUC of viability dose-response curve” value with BI-2493 [1] came out at 0.129. In the assay with BI-2493 [2], the “IC50 of cell viability” value is 6.54 µM.

Take GB1_CENTRAL_NERVOUS_SYSTEM: the “1 - AUC of viability dose-response curve” value with BI-2493 [1] amounted to 0.00342. The “IC50 of cell viability” value with BI-2493 [2] was more than 10 µM.

Regarding SW780_URINARY_TRACT, in the assay with BI-2493 [1], the “1 - AUC of viability dose-response curve” value came to 0.22. Also, in the assay with BI-2493 [2], the “IC50 of cell viability” value turned out to be 3.46 µM.

For MB1_THYROID, in the assay with BI-2493 [1], the “1 - AUC of viability dose-response curve” value was 0.165. In addition, in the assay with BI-2493 [2], the “IC50 of cell viability” value is 5.5 µM.

With A204_SOFT_TISSUE, in the assay with BI-2493 [1], the “1 - AUC of viability dose-response curve” value worked out at 0.163. Further, in the assay with BI-2493 [2], the “IC50 of cell viability” value is 4.24 µM.

In the case of HAC2_OVARY, the “1 - AUC of viability dose-response curve” value in the assay with BI-2493 [1] stood at 0.157. Moreover, the “IC50 of cell viability” value with BI-2493 [2] came to 6.07 µM.

ECC10_STOMACH: in the assay with BI-2493 [1], the “1 - AUC of viability dose-response curve” value stood at 0.0829. Also, the “IC50 of cell viability” value in the assay with BI-2493 [2] worked out at 4.51 µM.

As to CAL148_BREAST, the “1 - AUC of viability dose-response curve” value with BI-2493 [1] is less than 0. Moreover, in the assay with BI-2493 [2], the “IC50 of cell viability” value is more than 10 µM.

With “RPMI8402_HAEMATOPOIETIC_AND_LYMPHOID_TISSUE”, the “1 - AUC of viability dose-response curve” value with BI-2493 [1] was found to be 0.0899. Also, in the assay with BI-2493 [2], the “IC50 of cell viability” value was found to be 6.85 µM.

As for “KMS27_HAEMATOPOIETIC_AND_LYMPHOID_TISSUE”, the “1 - AUC of viability dose-response curve” value with BI-2493 [1] turned out to be 0.028. Besides, in the assay with BI-2493 [2], the “IC50 of cell viability” value amounted to 9 µM.

With KNS60_CENTRAL_NERVOUS_SYSTEM, the “1 - AUC of viability dose-response curve” value with BI-2493 [1] was determined as 0.0228. The “IC50 of cell viability” value with BI-2493 [2] amounted to 9.53 µM.

As to HA1E_KIDNEY, the “1 - AUC of viability dose-response curve” value with BI-2493 [1] is 0.223. Also, the “IC50 of cell viability” value with BI-2493 [2] was more than 10 µM.

On to 143B_BONE, for which the “1 - AUC of viability dose-response curve” value in the assay with BI-2493 [1] was found to be 0.0198. Besides, in the assay with BI-2493 [2], the “IC50 of cell viability” value was 8.98 µM.

For SKMEL5_SKIN, the “1 - AUC of viability dose-response curve” value in the assay with BI-2493 [1] was determined as 0.0596. Besides, the “IC50 of cell viability” value with BI-2493 [2] worked out at 7.01 µM.

For SSP25_BILIARY_TRACT, the “1 - AUC of viability dose-response curve” value in the assay with BI-2493 [1] came to 0.11. In addition, in the assay with BI-2493 [2], the “IC50 of cell viability” value came to 8.5 µM.

Turning to VAESBJ_SOFT_TISSUE, the “1 - AUC of viability dose-response curve” value with BI-2493 [1] is 0.00971. Besides, in the assay with BI-2493 [2], the “IC50 of cell viability” value was 9.61 µM.

Take A427_LUNG: the “1 - AUC of viability dose-response curve” value with BI-2493 [1] amounted to 0.349. Moreover, in the assay with BI-2493 [2], the “IC50 of cell viability” value worked out at 0.735 µM.

With HCC33_LUNG, in the assay with BI-2493 [1], the “1 - AUC of viability dose-response curve” value was determined as 0.161. Besides, the “IC50 of cell viability” value with BI-2493 [2] was 9.27 µM.

Turning to HEL_HAEMATOPOIETIC_AND_LYMPHOID_TISSUE, in the assay with BI-2493 [1], the “1 - AUC of viability dose-response curve” value turned out to be 0.255. Moreover, in the assay with BI-2493 [2], the “IC50 of cell viability” value is 4.89 µM.

With JIMT1_BREAST, in the assay with BI-2493 [1], the “1 - AUC of viability dose-response curve” value came to 0.115. Moreover, the “IC50 of cell viability” value with BI-2493 [2] worked out at 5.98 µM.

Consider VAL_HAEMATOPOIETIC_AND_LYMPHOID_TISSUE, for which the “1 - AUC of viability dose-response curve” value with BI-2493 [1] worked out at 0.136. The “IC50 of cell viability” value with BI-2493 [2] amounted to 3.46 µM.

With “OCILY3_HAEMATOPOIETIC_AND_LYMPHOID_TISSUE”, the “1 - AUC of viability dose-response curve” value with BI-2493 [1] was determined as 0.0575. For the same test system, the “IC50 of cell viability” value with BI-2493 [2] came to 7.48 µM.

As to NCIH661_LUNG, the “1 - AUC of viability dose-response curve” value with BI-2493 [1] was determined as 0.155. The “IC50 of cell viability” value with BI-2493 [2] is 9.34 µM.

Take HUH28_BILIARY_TRACT: the “1 - AUC of viability dose-response curve” value with BI-2493 [1] was 0.0149. The “IC50 of cell viability” value with BI-2493 [2] is 9.21 µM.

In the case of BDCM_HAEMATOPOIETIC_AND_LYMPHOID_TISSUE, the “1 - AUC of viability dose-response curve” value with BI-2493 [1] stood at 0.0903. The “IC50 of cell viability” value with BI-2493 [2] was more than 10 µM.

Turning to 253JBV_URINARY_TRACT, the “1 - AUC of viability dose-response curve” value with BI-2493 [1] turned out to be 0.0713. Also, the “IC50 of cell viability” value with BI-2493 [2] worked out at 6.75 µM.

Take ECC2_BILIARY_TRACT: the “1 - AUC of viability dose-response curve” value with BI-2493 [1] is less than 0. Further, in the assay with BI-2493 [2], the “IC50 of cell viability” value was more than 10 µM.

For KE97_STOMACH, in the assay with BI-2493 [1], the “1 - AUC of viability dose-response curve” value worked out at 0.00627. Also, the “IC50 of cell viability” value in the assay with BI-2493 [2] was more than 10 µM.

Turning to EFM192A_BREAST, the “1 - AUC of viability dose-response curve” value in the assay with BI-2493 [1] is 0.0526. The “IC50 of cell viability” value in the assay with BI-2493 [2] is more than 10 µM.
